Assay results from patent US11077126B2 (priority 2017, dated 2021).

Legend:
[1] = tested on: transplanted tumor of human breast cancer MDA-MB-231 cells; test: Human breast cancer (MDA-MB-231) in nude mice model; conditions: MDA-MB-231 nude mice; 30 mg/kg i.g. 30 d
Method: (§1) Then cell concentration was adjusted to 1×10^7/ml with matrigel, and then each nude mouse was inoculated subcutaneously with 0.2 ml of cells at its right armpit and recorded as the first day of inoculation. […] Each group was continuously administered intragastrically for 30 days with a dose of 20 ml/kg. The mice were sacrificed the next day after drug withdrawal and the indicators were tested. The long diameter and short diameter of the tumor, and the body weight of each mouse were recorded every 3 days from drug administration to nude mouse sacrifice.
(§2) The body weight of the nude mice and the long diameter (a) and short diameter (b) of the transplanted tumor were measured every 3 days, and the tumor volume (v), relative tumor volume (RTV) and relative tumor proliferation rate (T/C) are calculated respectively according to the following formulas, wherein V=a×b^2/2; RTV=V/V0 (V0 is the tumor volume before administration, V is the tumor volume before sacrifice), and T/C (%)=treatment group RTV/model control group RTV×100%.
(§3) Each mouse was weighed and sacrificed. After the tumor was completely stripped off from the body of the mouse, the non-tumor tissues such as blood stains and fat were removed to weigh the tumor and calculate the tumor growth inhibition rate. The average tumor weight of each group of mice is used as an indicator of efficacy. Tumor growth inhibition rate (%)=(1−the average tumor weight of the treatment group/the average tumor weight of the model group)×100%.

[2] = tested on: transplanted tumor of human non-small cell lung cancer A549 cells; test: Human non-small cell lung cancer in nude mice model; conditions: 30 mg/kg i.g. 30 d
Method: as §1, with “A549 cells in a logarithmic growth phase were taken and subjected to a trypan blue exclusion experiment showing that the cell viability was more than 95%, then the cells were subjected to trypsinization, centrifugation, and supernatant removal. Then” for “Then”, “matrigel,” for “matrigel, and”, “inoculation. When the tumor growed to be greater than or equal to 100 mm^3, the mice were randomly divided into 5 groups with 6 mice in each group.” for “inoculation.”
as §2, §3

[3] = tested on: mouse bone marrow polychromatic erythrocytes; conditions: NIH mice, cyclophosphamide 60 mg/kg positive control
Method: It is the object to test the mutagenic potential of drugs on mammalian somatic cells, and provide a basis for clinical drug use.
An appropriate amount of 0.5% sodium carboxymethyl cellulose solution was added to prepare a suspension, and the suspension was stored in a refrigerator at 4° C. The negative control was an equal amount of 0.5% sodium carboxymethylcellulose solution. The positive control was prepared as follows: an appropriate amount of cyclophosphamide used for injection was weighed, and was dissolved in normal saline at the time of use to prepare 60 mg/kg of solution.
6 mice per group. The doses, number of administrations, and bone marrow sampling time are selected in the pre-test.
The dose is reduced by ½ LD50 as the standard, and the number of administrations is one time. According to the pre-test results, the bone marrow sampling time is to sample 24 hours after administration.
At least three dose groups, respectively: 2,000 mg/kg, 1,000 mg/kg, 500 mg/kg
The number of administrations: one-time oral administration.
Oral (Intragastric) administration.
2.4.3 Bone marrow sampling time: 24 hours after administration.
The mice were sacrificed by cervical dislocation. Then the sternums were taken to remove the muscles thereon and the attachments were wiped with a gauze. Direct smear of bone marrow was used: the sternums were cut to expose the medullary cavity, and bone marrow was extruded and mixed well with a drop of calf serum on a slide beforehand as a push piece. After being dried, the slide was fixed in methanol for 10 minutes, and then after it was dried, it was then subjected to Giemsa staining. Each mouse was microscopically examined for about 1,000 polychromatic erythrocytes with intact contours of erythrocytes, and the frequency of occurrence of micronuclei and the ratio of polychromatic erythrocytes to erythrocytes were counted.

[4] = tested on: spleen lymphocytes (ConA, LPS stimulation); test: Spleen lymphocyte proliferation activity of Lewis lung cancer tumor-bearing mice; assay type: in vivo, C57BL/6 mouse
Method: The serum-free RPMI 1640 medium was placed in a dish, and then the dish was placed on ice. The spleen was aseptically taken and gently ground with a sterile glass slide to prepare a single cell suspension. The single cell suspension was filtered with a double-layer sterile gauze, washed twice with serum-free RPMI 1640 medium, and centrifuged at 1,500 rpm for 5 min to remove the obtained supernatant. 2 mL of red blood cell lysate was added to the treated suspension, the mixture was allowed to stand for 2 min, and then 8 mL of RPMI 1640 medium was added, centrifuging was performed at 1,500 rpm for 5 min to remove the obtained supernatant, and then washing was performed twice with the RPMI 1640 medium. Trypan blue staining was performed to count the number of live cells, and the cell viability was more than 95%. A single cell suspension was prepared by using a RPMI 1640 medium containing 10% fetal bovine serum.
The spleen cell suspension was taken, and the cell density was adjusted to 1×10^7/mL. Each mouse was set with: A. a control well: 100 μL of RPMI 1640 medium was added; B. a concanavalin A (ConA) stimulation well: 100 μL (10 mg/L) of concanavalin A (ConA) solution was added; and C. a bacterial endotoxin (LPS) stimulating well: 100 μL (20 mg/L) of bacterial endotoxin (LPS) solution was added. The above cells were added to a 96-well plate, and then 100 μL of spleen cell suspension was added to each of the above wells. After the culture plate was transferred to a saturated humidity condition with a volume fraction of 5% CO2 at 37° C. for incubation for 72 h, 10 μL of MTT solution (5 g/L) was added to each well, and incubation was continued to be performed for 4 hours under the same conditions, then the culture was terminated. […] The Optical Density (OD) of each well was measured at 570 nm, and the lymphocyte proliferation rate was calculated. Lymphocyte proliferation rate (%)=[(T−C)/C]×100%, wherein T is the Optical Density of the stimulation well, and C is the Optical Density of the control well.

[5] = 26 mg/kg, positive drug group, n = 6

O=P1(N(CCCl)CCCl)NCCCO1 (stereo not drawn) [Cyclophosphamide]
Body Weight (g)(d1) [1]: 21.28 ± 0.95 g
Body Weight (g)(d30) [1]: 19.79 ± 1.03 g
Inhibition Rate (%) [1]: 79.75%
Relative Tumor Proliferation Rate(T/C) [1]: 28.59%
Relative Tumor Volume (RTV) [1]: 3.46 ± 0.70
Tumor Volume (mm3) (d1) [1]: 169.73 ± 11.79 mm3
Tumor Volume (mm3) (d30) [1]: 587.27 ± 30.47 mm3
Tumor Weight [1]: 0.27 ± 0.11 g
Body Weight (g)(d1) [2]: 20.89 ± 0.91 g
Body Weight (g)(d30) [2]: 18.97 ± 0.82 g
Inhibition Rate (%) [2]: 81.25%
Relative Tumor Proliferation Rate(T/C) [2]: 23.28%
Relative Tumor Volume (RTV) [2]: 3.97 ± 0.68
Tumor Volume (mm3) (d1) [2]: 127.26 ± 15.21 mm3
Tumor Volume (mm3) (d30) [2]: 504.75 ± 143.63 mm3
Tumor Weight [2]: 0.21 ± 0.11 g
micronucleus rate relative to the negative control group [3]: 16.85 times
micronuclei of polychromatic erythrocytes compared with the negative control group ([3]; P<0.01): very significant increase
B Lymphocyte Proliferation Activity (%) [4, 5]: 11.63 ± 4.68 %
T Lymphocyte Proliferation Activity (%) [4, 5]: 13.24 ± 3.72 %
lymphocyte activity (proliferation) ([4]; Lewis lung cancer tumor-bearing mice, cyclophosphamide, P<0.05): significantly inhibited
